Experimental data published in PubChem BioAssay AID1963845 (Molecular Pharmacology Branch, DTP, NCI, 2024).

Tested on: 429239-143-T-J1-PDC complex spheroid viability
Experiment: Anticancer human tumor 429239-143-T-J1-PDC patient-derived small cell lung carcinoma cell line growth inhibition [POLQ]
Settings: for IC50: curve of first compound; for viability, T/C: stronger effect = lower value
Outline: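 Patient-derived tumour cells were co-cultured with HUVEC and mesenchymal stem cells as multicellular spheroids at 37 °C. They were treated with POLQ inhibitors (novobiocin, ART-558, RP6685) alone or combined with other agents. Top concentrations were at or near clinical Cmax (otherwise 10 microM; SN-38 at 1 microM), decreasing in half-log steps.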

[1] = second compound 0.0316 µM, first compound 0.0316 µM
[2] = second compound 0.0316 µM, first compound 0.1 µM
[3] = second compound 0.0316 µM, first compound 0.316 µM
[4] = second compound 0.0316 µM, first compound 1 µM
[5] = second compound 0.0316 µM, first compound 3.16 µM
[6] = second compound 0.0316 µM, first compound 10 µM
[7] = second compound 0.1 µM, first compound 0.0316 µM
[8] = second compound 0.1 µM, first compound 0.1 µM
[9] = second compound 0.1 µM, first compound 0.316 µM
[10] = second compound 0.1 µM, first compound 1 µM
[11] = second compound 0.1 µM, first compound 3.16 µM
[12] = second compound 0.1 µM, first compound 10 µM
[13] = second compound 0.316 µM, first compound 0.0316 µM
[14] = second compound 0.316 µM, first compound 0.1 µM
[15] = second compound 0.316 µM, first compound 0.316 µM
[16] = second compound 0.316 µM, first compound 1 µM
[17] = second compound 0.316 µM, first compound 3.16 µM
[18] = second compound 0.316 µM, first compound 10 µM
[19] = second compound 1 µM, first compound 0.0316 µM
[20] = second compound 1 µM, first compound 0.1 µM
[21] = second compound 1 µM, first compound 0.316 µM
[22] = second compound 1 µM, first compound 1 µM
[23] = second compound 1 µM, first compound 3.16 µM
[24] = second compound 1 µM, first compound 10 µM
[25] = second compound 3.16 µM, first compound 0.0316 µM
[26] = second compound 3.16 µM, first compound 0.1 µM
[27] = second compound 3.16 µM, first compound 0.316 µM
[28] = second compound 3.16 µM, first compound 1 µM
[29] = second compound 3.16 µM, first compound 3.16 µM
[30] = second compound 3.16 µM, first compound 10 µM
[31] = second compound 10 µM, first compound 0.0316 µM
[32] = second compound 10 µM, first compound 0.1 µM
[33] = second compound 10 µM, first compound 0.316 µM
[34] = second compound 10 µM, first compound 1 µM
[35] = second compound 10 µM, first compound 3.16 µM
[36] = second compound 10 µM, first compound 10 µM
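Also: luminescence signal used as surrogate measure of viable cells; spheroids exposed to compounds for seven days before readout.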
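For viability, T/C in this document: 100% = DMSO vehicle control viability as luminescence relative to vehicle.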

CC(C)n1c(=O)n(C)c2cnc3cc(F)c(-c4ccc(OCCCN5CCCCC5)nc4)cc3c21 + Cc1cccc(N(C)C(=O)C2C(O)CCN2c2nc(C)cc(C(F)(F)F)c2C#N)c1
IC50 (second compound 0.0316 µM): > 10000 nM | IC50 (second compound 0.1 µM): > 10000 nM | IC50 (second compound 0.316 µM): > 10000 nM | IC50 (second compound 1 µM): > 10000 nM | IC50 (second compound 3.16 µM): > 10000 nM | IC50 (second compound 10 µM): > 10000 nM | viability, T/C [1]: 104% | viability, T/C [2]: 83% | viability, T/C [3]: 92.2% | viability, T/C [4]: 78.4% | viability, T/C [5]: 78.8% | viability, T/C [6]: 72.5% | viability, T/C [7]: 90.5% | viability, T/C [8]: 90.3% | viability, T/C [9]: 91.7% | viability, T/C [10]: 86.5% | viability, T/C [11]: 77.7% | viability, T/C [12]: 75.3% | viability, T/C [13]: 85% | viability, T/C [14]: 93.9% | viability, T/C [15]: 72.3% | viability, T/C [16]: 92.6% | viability, T/C [17]: 81.8% | viability, T/C [18]: 69.7% | viability, T/C [19]: 81.8% | viability, T/C [20]: 95.7% | viability, T/C [21]: 94.2% | viability, T/C [22]: 73.4% | viability, T/C [23]: 75.6% | viability, T/C [24]: 62.6% | viability, T/C [25]: 89.2% | viability, T/C [26]: 108% | viability, T/C [27]: 88.8% | viability, T/C [28]: 87.8% | viability, T/C [29]: 77.6% | viability, T/C [30]: 64.7% | viability, T/C [31]: 83.3% | viability, T/C [32]: 88.9% | viability, T/C [33]: 83.3% | viability, T/C [34]: 89.1% | viability, T/C [35]: 83.4% | viability, T/C [36]: 53.6%

CC1COCCN1c1cc(-c2ccnn2C)c2ccnc(-c3ccn[nH]3)c2n1 (stereo not drawn) + Cc1cccc(N(C)C(=O)C2C(O)CCN2c2nc(C)cc(C(F)(F)F)c2C#N)c1
IC50 (second compound 0.0316 µM): 135 nM | IC50 (second compound 0.1 µM): 121 nM | IC50 (second compound 0.316 µM): 128 nM | IC50 (second compound 1 µM): 88.5 nM | IC50 (second compound 3.16 µM): 90.9 nM | IC50 (second compound 10 µM): 106 nM | viability, T/C [1]: 88.1% | viability, T/C [2]: 54.9% | viability, T/C [3]: 34.8% | viability, T/C [4]: 15.2% | viability, T/C [5]: 9.81% | viability, T/C [6]: 10.9% | viability, T/C [7]: 83.7% | viability, T/C [8]: 54.4% | viability, T/C [9]: 26.7% | viability, T/C [10]: 11.2% | viability, T/C [11]: 9.92% | viability, T/C [12]: 10.2% | viability, T/C [13]: 82.1% | viability, T/C [14]: 55.4% | viability, T/C [15]: 29.9% | viability, T/C [16]: 12.9% | viability, T/C [17]: 9.82% | viability, T/C [18]: 8.22% | viability, T/C [19]: 86.3% | viability, T/C [20]: 44.1% | viability, T/C [21]: 28.4% | viability, T/C [22]: 13.8% | viability, T/C [23]: 11.9% | viability, T/C [24]: 9.85% | viability, T/C [25]: 77.9% | viability, T/C [26]: 44.1% | viability, T/C [27]: 35% | viability, T/C [28]: 16.1% | viability, T/C [29]: 11.2% | viability, T/C [30]: 10.4% | viability, T/C [31]: 77.4% | viability, T/C [32]: 50.7% | viability, T/C [33]: 30.7% | viability, T/C [34]: 17.7% | viability, T/C [35]: 11.7% | viability, T/C [36]: 9.99%

CC1COCCN1c1cc(C2(S(C)(=N)=O)CC2)nc(-c2ccnc3[nH]ccc23)n1 (stereo not drawn) + Cc1cccc(N(C)C(=O)C2C(O)CCN2c2nc(C)cc(C(F)(F)F)c2C#N)c1
IC50 (second compound 0.0316 µM): 2210 nM | IC50 (second compound 0.1 µM): 2100 nM | IC50 (second compound 0.316 µM): 2020 nM | IC50 (second compound 1 µM): 2100 nM | IC50 (second compound 3.16 µM): 2320 nM | IC50 (second compound 10 µM): 2410 nM | viability, T/C [1]: 108% | viability, T/C [2]: 105% | viability, T/C [3]: 92.9% | viability, T/C [4]: 77.3% | viability, T/C [5]: 37.2% | viability, T/C [6]: 15.9% | viability, T/C [7]: 105% | viability, T/C [8]: 106% | viability, T/C [9]: 96.7% | viability, T/C [10]: 72.9% | viability, T/C [11]: 37.6% | viability, T/C [12]: 16% | viability, T/C [13]: 101% | viability, T/C [14]: 99.6% | viability, T/C [15]: 97.2% | viability, T/C [16]: 73.6% | viability, T/C [17]: 34.9% | viability, T/C [18]: 17.3% | viability, T/C [19]: 91.2% | viability, T/C [20]: 98.9% | viability, T/C [21]: 89.7% | viability, T/C [22]: 75.7% | viability, T/C [23]: 35.8% | viability, T/C [24]: 17.7% | viability, T/C [25]: 96.9% | viability, T/C [26]: 97.6% | viability, T/C [27]: 94.5% | viability, T/C [28]: 71.3% | viability, T/C [29]: 42.6% | viability, T/C [30]: 18.3% | viability, T/C [31]: 105% | viability, T/C [32]: 103% | viability, T/C [33]: 98.4% | viability, T/C [34]: 60.2% | viability, T/C [35]: 50.3% | viability, T/C [36]: 17.8%

COc1ccc([C@@H](O)c2cc(-c3ncnc4cc(N5CCOCC5)ccc34)c(F)cc2Cl)nn1 + Cc1cccc(N(C)C(=O)C2C(O)CCN2c2nc(C)cc(C(F)(F)F)c2C#N)c1
IC50 (second compound 0.0316 µM): 3250 nM | IC50 (second compound 0.1 µM): 2790 nM | IC50 (second compound 0.316 µM): 2480 nM | IC50 (second compound 1 µM): 3320 nM | IC50 (second compound 3.16 µM): 2880 nM | IC50 (second compound 10 µM): 2490 nM | viability, T/C [1]: 103% | viability, T/C [2]: 95.7% | viability, T/C [3]: 94.4% | viability, T/C [4]: 70.4% | viability, T/C [5]: 53.5% | viability, T/C [6]: 10.8% | viability, T/C [7]: 101% | viability, T/C [8]: 107% | viability, T/C [9]: 106% | viability, T/C [10]: 80.7% | viability, T/C [11]: 47.3% | viability, T/C [12]: 9.36% | viability, T/C [13]: 105% | viability, T/C [14]: 94.5% | viability, T/C [15]: 102% | viability, T/C [16]: 90.1% | viability, T/C [17]: 39.2% | viability, T/C [18]: 14.3% | viability, T/C [19]: 105% | viability, T/C [20]: 95.9% | viability, T/C [21]: 98.7% | viability, T/C [22]: 82.3% | viability, T/C [23]: 51.9% | viability, T/C [24]: 9.82% | viability, T/C [25]: 99.5% | viability, T/C [26]: 98.8% | viability, T/C [27]: 97.2% | viability, T/C [28]: 79.5% | viability, T/C [29]: 47.7% | viability, T/C [30]: 8.69% | viability, T/C [31]: 122% | viability, T/C [32]: 86.7% | viability, T/C [33]: 89.5% | viability, T/C [34]: 64.3% | viability, T/C [35]: 57.1% | viability, T/C [36]: 8.38%
